Results published in ChEMBL document CHEMBL1909294, “Translating clinical findings into knowledge in drug safety evaluation--drug induced liver injury prediction system (DILIps)” (PLoS Comput Biol, 2011).

Experiments:
[1] = system: Hepatotoxicity;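 for HepSE Combined Scores: combined hepatic side effect score as listed in the training data of the Drug Induced Liver Injury Prediction System (DILIps)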;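 for HepSE bilirubinemia: bilirubinemia hepatic side effect score drawn from the DILIps training data, a prediction system for drug-induced liver injury; call rule not given here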;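 for HepSE cholecystitis: Cholecystitis-related hepatic side effect score drawn from the DILIps (drug-induced liver injury prediction) training data set; call rule not given here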;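 for HepSE cholelithiasis: hepatic side effect score for cholelithiasis, drawn from the DILIps training data for predicting drug-induced liver injury; call rule not given here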;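 for HepSE cirrhosis: cirrhosis hepatic side effect score taken from the DILIps (drug-induced liver injury prediction) training set; call rule not given here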; for HepSE hepatic failure: call rule not given here; for HepSE liver disease: call rule not given here
[2] = system: Hepatotoxicity; remark: listed apart in the source;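 for HepSE Combined Scores: combined hepatic side effect score as listed in the training data of the Drug Induced Liver Injury Prediction System (DILIps)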;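 for HepSE bilirubinemia: bilirubinemia hepatic side effect score drawn from the DILIps training data, a prediction system for drug-induced liver injury; call rule not given here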;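 for HepSE cholecystitis: Cholecystitis-related hepatic side effect score drawn from the DILIps (drug-induced liver injury prediction) training data set; call rule not given here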;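 for HepSE cholelithiasis: hepatic side effect score for cholelithiasis, drawn from the DILIps training data for predicting drug-induced liver injury; call rule not given here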;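 for HepSE cirrhosis: cirrhosis hepatic side effect score taken from the DILIps (drug-induced liver injury prediction) training set; call rule not given here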; for HepSE hepatic failure: call rule not given here; for HepSE liver disease: call rule not given here
[3] = system: Hepatotoxicity; remark: listed apart in the source;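 for HepSE Combined Scores: combined hepatic side effect score as listed in the training data of the Drug Induced Liver Injury Prediction System (DILIps)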;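 for HepSE bilirubinemia: bilirubinemia hepatic side effect score drawn from the DILIps training data, a prediction system for drug-induced liver injury; call rule not given here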;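 for HepSE cholecystitis: Cholecystitis-related hepatic side effect score drawn from the DILIps (drug-induced liver injury prediction) training data set; call rule not given here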;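 for HepSE cholelithiasis: hepatic side effect score for cholelithiasis, drawn from the DILIps training data for predicting drug-induced liver injury; call rule not given here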;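 for HepSE cirrhosis: cirrhosis hepatic side effect score taken from the DILIps (drug-induced liver injury prediction) training set; call rule not given here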; for HepSE hepatic failure: call rule not given here; for HepSE liver disease: call rule not given here
[4] = system: Hepatotoxicity; remark: listed apart in the source;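 for HepSE Combined Scores: combined hepatic side effect score as listed in the training data of the Drug Induced Liver Injury Prediction System (DILIps)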;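 for HepSE bilirubinemia: bilirubinemia hepatic side effect score drawn from the DILIps training data, a prediction system for drug-induced liver injury; call rule not given here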;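 for HepSE cholecystitis: Cholecystitis-related hepatic side effect score drawn from the DILIps (drug-induced liver injury prediction) training data set; call rule not given here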;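 for HepSE cholelithiasis: hepatic side effect score for cholelithiasis, drawn from the DILIps training data for predicting drug-induced liver injury; call rule not given here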;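 for HepSE cirrhosis: cirrhosis hepatic side effect score taken from the DILIps (drug-induced liver injury prediction) training set; call rule not given here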; for HepSE hepatic failure: call rule not given here; for HepSE liver disease: call rule not given here
[5] = system: Hepatotoxicity; remark: listed apart in the source; for HepSE hepatic failure: call rule not given here; for HepSE liver disease: call rule not given here
[6] = system: Hepatotoxicity; remark: listed apart in the source; for HepSE hepatic failure: call rule not given here; for HepSE liver disease: call rule not given here
[7] = system: Hepatotoxicity; remark: listed apart in the source
[8] = system: Hepatotoxicity; remark: listed apart in the source
[9] = system: Hepatotoxicity; remark: listed apart in the source
[10] = system: Hepatotoxicity; remark: listed apart in the source
[11] = system: Hepatotoxicity; remark: listed apart in the source
[12] = system: Hepatotoxicity; remark: listed apart in the source
[13] = system: Hepatotoxicity; remark: listed apart in the source
[14] = system: Hepatotoxicity; remark: listed apart in the source
[15] = system: Hepatotoxicity; remark: listed apart in the source
[16] = system: Hepatotoxicity; remark: listed apart in the source

| Compound | DILI positive/negative [1] | other results |
| --- | --- | --- |
| CO[C@@H]1O[C@H](CO)[C@H](O)[C@H](O[C@@H]2O[C@@H](C(=O)O)[C@@H](OC)[C@H](O)[C@H]2O)[C@H]1NC(C)=O | 1 | – |
| O=C(O)Cc1csc(-c2ccc(Cl)cc2)n1 [FENCLOZIC ACID] | 1 | – |
| C[C@H]1[C@H](c2ccccc2)OCCN1C [PHENDIMETRAZINE] | 0 | – |
| C=CCOc1ccc(CC(=O)O)cc1Cl [ALCLOFENAC] | – | DILI positive/negative ([1]; Liver): 1 |
| CONC(=N)c1ccc(-c2ccc(-c3ccc(C(=N)NOC)cc3)o2)cc1 [PAFURAMIDINE] | 1 | – |
| COc1ccc2c(C(=O)c3ccc(Cl)cc3)c(C)n(CC(=O)O)c2c1 [CLOMETACIN] | 1 | – |
| Cc1ccc(Nc2c(F)cccc2Cl)c(CC(=O)O)c1 [LUMIRACOXIB] | 1 | – |
| CN1CCC(Nc2ncc3ncnc(Nc4ccc(F)c(Cl)c4)c3n2)CC1 [FALNIDAMOL] | – | DILI positive/negative ([1]; Liver): 1 |
| Nc1nc(Cl)nc2c1ncn2[C@H]1C[C@H](O)[C@@H](CO)O1 [CLADRIBINE] | – | HepSE_liver disease [2]: 0; HepSE_bilirubinemia [3]: 0; HepSE_hepatic necrosis [4]: 0; HepSE_cholelithiasis [5]: 0; HepSE_Combined Scores [6]: 0; HepSE_liver fatty [7]: 0; HepSE_cirrhosis [8]: 0; HepSE_cholecystitis [9]: 0; DILI positive/negative [10]: 0; HepSE_hepatic failure [11]: 0; HepSE_elevated liver function tests [12]: 0; HepSE_hepatitis [13]: 0; HepSE_liver function tests abnormal [14]: 0; HepSE_hepatomegaly [15]: 0; HepSE_jaundice [16]: 0 |
| CC(C)Nc1ncccn1 [ISAXONINE] | 1 | – |
| CC(=O)Oc1ccc(C2(c3ccc(OC(C)=O)cc3)C(=O)N(C(C)=O)c3ccccc32)cc1 [TRIACETYLDIPHENOLISATIN] | 1 | – |
| Nc1ccc(S(=O)(=O)Nc2nccs2)cc1 [SULFATHIAZOLE] | – | DILI positive/negative ([1]; Liver): 1 |
| CCCCNc1ccc(C(=O)OCCOCCOCCOCCOCCOCCOCCOCCOCCOC)cc1 [BENZONATATE] | 0 | – |
| CCOC(=O)CN[C@@H](C(=O)N1CC[C@H]1C(=O)NCc1ccc(/C(N)=N\O)cc1)C1CCCCC1 [XIMELAGATRAN] | 1 | – |
| COc1ccc2c(C(=S)N(C)CC(=O)O)cccc2c1C(F)(F)F [TOLRESTAT] | 1 | – |
| O=C(c1cc(O)c(O)c(O)c1)c1ccc(O)c(O)c1O [EXIFONE] | 1 | – |
| NCCO [MONOETHANOLAMINE] | 0 | – |
| Cc1nc([N+](=O)[O-])cn1-c1ccc([N+](=O)[O-])cc1 [NITREFAZOLE] | 1 | – |
| Cc1nnc(C(C)C)n1[C@@H]1C[C@H]2CC[C@@H](C1)N2CC[C@H](NC(=O)C1CCC(F)(F)CC1)c1ccccc1 [MARAVIROC] | 1 | – |
| O=C(O)CCCCCCNC1c2ccccc2CCc2ccccc21 [AMINEPTINE] | 1 | – |
| O=C1Nc2ccccc2C1(c1ccc(O)cc1)c1ccc(O)cc1 [OXYPHENISATINE] | 1 | – |
| CCCCCCCCNC(C)C(O)c1ccc(SC(C)C)cc1 (stereo unspecified) [SULOCTIDIL] | 1 | – |
| O=C(CCNNC(=O)c1ccncc1)NCc1ccccc1 [NIALAMIDE] | 1 | – |
| CC(=O)Oc1ccc(C(=C2CCCCC2)c2ccc(OC(C)=O)cc2)cc1 [CYCLOFENIL] | 1 | – |
| CCO[C@@H]1OC(=O)C[C@@H]1NC(=O)[C@@H]1CCCN2C(=O)CC[C@H](NC(=O)c3nccc4ccccc34)C(=O)N12 | 1 | – |
| CC(COc1ccccc1)NN (stereo unspecified) [PHENOXYPROPAZINE] | 1 | – |
| CC[N+](C)(C)c1cccc(O)c1.[Br-] [EDROPHONIUM BROMIDE] | 0 | – |
